Key:
Assay in all cases: fitness (endpoint OD595 vs no drug) (fraction); higher = more growth
B. subtilis 168 = tested on: B. subtilis 168
In short: (§1)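 Fitness compares growth at the stationary-phase transition with the robust mean of no-drug control wells, as a ratio of optical densities. The ratio is capped at 1. Wells of 384-well plates held 30 µl, or 55 µl for S. pneumoniae, inoculated at OD595 0.01. Readings at OD595 every 30 min for 14 h at 37 °C were corrected against the first reading.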

S. aureus Newman = settings: one replicate
In short: as §1

S. pneumoniae D39V = tested on: S. pneumoniae D39V
In short: as §1
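Note: OD595 on entry to stationary phase over no-drug wells; at most 1.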

O=C(O)[C@H]1/C(=C/CO)O[C@@H]2CC(=O)N21 [Clavulanic acid] + CCN(CC)CCOC(=O)c1ccc(N)cc1 [Procaine]
fitness
Settings	partner 85.5 µg/mL	partner 171 µg/mL	partner 342 µg/mL
B. subtilis 168, first compound 1.5 µg/mL	0.876	0.92	0.902
B. subtilis 168, first compound 3 µg/mL	0.839	0.831	0.795
B. subtilis 168, first compound 6 µg/mL	0.746	0.739	0.672
S. aureus Newman, first compound 0.03125 µg/mL	0.948	0.929	0.963
S. aureus Newman, first compound 0.0625 µg/mL	0.982	≥ 1	≥ 1
S. aureus Newman, first compound 0.125 µg/mL	0.872	0.852	0.894
S. pneumoniae D39V, first compound 0.5 µg/mL	0.994	≥ 1	≥ 1
S. pneumoniae D39V, first compound 1 µg/mL	0.957	0.977	0.934
S. pneumoniae D39V, first compound 2 µg/mL	0.832	0.912	0.795

O=C(O)[C@H]1/C(=C/CO)O[C@@H]2CC(=O)N21 [Clavulanic acid] + CN1C2=CC=CC=C2N=C3C1=CC=CC3=O [Pyocyanin]
fitness
Settings	partner 0.65 µg/mL	partner 1.25 µg/mL	partner 1.3 µg/mL	partner 2.5 µg/mL	partner 5 µg/mL
B. subtilis 168, first compound 1.5 µg/mL	–	0.91	–	0.837	0.678
B. subtilis 168, first compound 3 µg/mL	–	0.798	–	0.818	0.665
B. subtilis 168, first compound 6 µg/mL	–	0.748	–	0.719	0.604
S. aureus Newman, first compound 0.03125 µg/mL	–	0.884	–	0.898	0.723
S. aureus Newman, first compound 0.0625 µg/mL	–	0.934	–	0.87	0.785
S. aureus Newman, first compound 0.125 µg/mL	–	0.855	–	0.827	0.74
S. pneumoniae D39V, first compound 0.5 µg/mL	≥ 1	–	0.765	–	–
S. pneumoniae D39V, first compound 1 µg/mL	0.94	–	0.791	–	–
S. pneumoniae D39V, first compound 2 µg/mL	0.861	–	0.581	–	–

O=C(O)[C@H]1/C(=C/CO)O[C@@H]2CC(=O)N21 [Clavulanic acid] + CN(C)c1cc(NC(=O)CNC(C)(C)C)c(O)c2c1C[C@H]1C[C@H]3[C@H](N(C)C)C(O)=C(C(N)=O)C(=O)[C@@]3(O)C(O)=C1C2=O [Tigecycline]
Settings	fitness
B. subtilis 168, first compound 1.5 µg/mL, partner 0.039 µg/mL	0.98
B. subtilis 168, first compound 1.5 µg/mL, partner 0.078 µg/mL	0.919
B. subtilis 168, first compound 1.5 µg/mL, partner 0.156 µg/mL	0.884
B. subtilis 168, first compound 3 µg/mL, partner 0.039 µg/mL	0.888
B. subtilis 168, first compound 3 µg/mL, partner 0.078 µg/mL	0.899
B. subtilis 168, first compound 3 µg/mL, partner 0.156 µg/mL	0.889
B. subtilis 168, first compound 6 µg/mL, partner 0.039 µg/mL	0.82
B. subtilis 168, first compound 6 µg/mL, partner 0.078 µg/mL	0.796
B. subtilis 168, first compound 6 µg/mL, partner 0.156 µg/mL	0.79
S. aureus Newman, first compound 0.03125 µg/mL, partner 0.039 µg/mL	0.952
S. aureus Newman, first compound 0.03125 µg/mL, partner 0.078 µg/mL	0.933
S. aureus Newman, first compound 0.03125 µg/mL, partner 0.156 µg/mL	0.96
S. aureus Newman, first compound 0.0625 µg/mL, partner 0.039 µg/mL	0.987
S. aureus Newman, first compound 0.0625 µg/mL, partner 0.078 µg/mL	1
S. aureus Newman, first compound 0.0625 µg/mL, partner 0.156 µg/mL	0.971
S. aureus Newman, first compound 0.125 µg/mL, partner 0.039 µg/mL	0.919
S. aureus Newman, first compound 0.125 µg/mL, partner 0.078 µg/mL	0.884
S. aureus Newman, first compound 0.125 µg/mL, partner 0.156 µg/mL	0.898
S. pneumoniae D39V, first compound 0.5 µg/mL, partner 0.325 µg/mL	≥ 1
S. pneumoniae D39V, first compound 0.5 µg/mL, partner 0.65 µg/mL	0.965
S. pneumoniae D39V, first compound 0.5 µg/mL, partner 1.3 µg/mL	0.931
S. pneumoniae D39V, first compound 0.5 µg/mL, partner 2.6 µg/mL	0.866
S. pneumoniae D39V, first compound 1 µg/mL, partner 0.325 µg/mL	0.908
S. pneumoniae D39V, first compound 1 µg/mL, partner 0.65 µg/mL	0.889
S. pneumoniae D39V, first compound 1 µg/mL, partner 1.3 µg/mL	0.877
S. pneumoniae D39V, first compound 1 µg/mL, partner 2.6 µg/mL	0.814
S. pneumoniae D39V, first compound 2 µg/mL, partner 0.325 µg/mL	0.717
S. pneumoniae D39V, first compound 2 µg/mL, partner 0.65 µg/mL	0.782
S. pneumoniae D39V, first compound 2 µg/mL, partner 1.3 µg/mL	0.815
S. pneumoniae D39V, first compound 2 µg/mL, partner 2.6 µg/mL	0.755

fitness, B. subtilis 168, one replicate
Settings	first compound 1.5 µg/mL	first compound 3 µg/mL	first compound 6 µg/mL
partner 0.125 µg/mL	0.956	0.952	0.814
partner 0.25 µg/mL	0.863	0.928	0.821
partner 0.5 µg/mL	0.866	0.865	0.765

O=C(O)[C@H]1/C(=C/CO)O[C@@H]2CC(=O)N21 [Clavulanic acid] + CN(N=O)C(=O)N[C@@H](C=O)[C@@H](O)[C@H](O)[C@H](O)CO [Streptozotocin]
fitness
Settings	partner 0.15 µg/mL	partner 0.3 µg/mL	partner 0.6 µg/mL	partner 1.2 µg/mL	partner 2.4 µg/mL	partner 4.8 µg/mL
B. subtilis 168, first compound 1.5 µg/mL	0.914	0.898	0.911	–	–	–
B. subtilis 168, first compound 3 µg/mL	0.861	0.848	0.929	–	–	–
B. subtilis 168, first compound 6 µg/mL	0.779	0.772	0.75	–	–	–
S. aureus Newman, first compound 0.03125 µg/mL	0.937	0.91	0.667	–	–	–
S. aureus Newman, first compound 0.0625 µg/mL	0.977	0.911	0.761	–	–	–
S. aureus Newman, first compound 0.125 µg/mL	0.923	0.865	0.655	–	–	–
S. pneumoniae D39V, first compound 0.5 µg/mL	–	–	–	0.937	0.979	0.944
S. pneumoniae D39V, first compound 1 µg/mL	–	–	–	0.882	0.947	0.864
S. pneumoniae D39V, first compound 2 µg/mL	–	–	–	0.784	0.876	0.747

O=C(O)[C@H]1/C(=C/CO)O[C@@H]2CC(=O)N21 [Clavulanic acid] + CN[C@@H]1[C@H](O)[C@H](NC)[C@H]2O[C@@]3(O)C(=O)C[C@@H](C)O[C@H]3O[C@@H]2[C@H]1O [Spectinomycin]
fitness
Settings	partner 2 µg/mL	partner 4 µg/mL	partner 8 µg/mL	partner 16 µg/mL
B. subtilis 168, first compound 1.5 µg/mL	0.892	0.929	0.934	–
B. subtilis 168, first compound 3 µg/mL	0.951	0.868	0.867	–
B. subtilis 168, first compound 6 µg/mL	0.832	0.755	0.72	–
S. aureus Newman, first compound 0.03125 µg/mL	–	0.961	0.945	0.92
S. aureus Newman, first compound 0.0625 µg/mL	–	0.922	0.945	0.885
S. aureus Newman, first compound 0.125 µg/mL	–	0.916	0.958	0.905
S. pneumoniae D39V, first compound 0.5 µg/mL	–	0.916	0.852	0.658
S. pneumoniae D39V, first compound 1 µg/mL	–	0.809	0.845	0.621
S. pneumoniae D39V, first compound 2 µg/mL	–	0.79	0.749	0.447

Reference: the supplement of paper PMC10627819
